In article PMC12814168, “Fast, Bright, and Reversible Fluorescent Labeling of Rhodamine-Binding Proteins” (Journal of the American Chemical Society, 2025):
Values joined by “and” are separate entries in the source; they are usually repeats but may differ in a detail not shown here. Equal values may be shown once. Read-outs that look alike come from different tables or passages of the source.

Tests used:
[1] = target: T1, SAV2435 (Staphylococcus aureus, UniProt A0A0H3K0Y5); experiment: Fluorescence polarization at constant 20 nM TMR with serial protein dilutions (0-200 uM) in 50 mM HEPES, 50 mM NaCl, pH 7.3 with BSA, 25 °C, N at least 3.; assay type: binding; details: SD, n = 3
T1 construct: recombinant from E. coli, N-terminal His10-TEV (pET51b), 20 kDa
T1 sequence (A0A0H3K0Y5 entry or part of it): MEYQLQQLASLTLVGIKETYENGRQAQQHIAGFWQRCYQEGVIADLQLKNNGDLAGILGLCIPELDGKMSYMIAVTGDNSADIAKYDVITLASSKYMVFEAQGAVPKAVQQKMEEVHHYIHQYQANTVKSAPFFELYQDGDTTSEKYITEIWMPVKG
Excerpt: (§1) 1 Dye and candidate selection for the development of Rho-tags. A) Chemical structure of TMR and SiR and their corresponding HaloTag Ligand (HTL) derivatives. […] B) BOILED-Egg representation generated with SwissADME for molecules shown in (A). Correlation between the topological polar surface area (TPSA) and predicted water partitioning coefficient (WlogP). Gray area–predicted low passive absorption to the gastrointestinal (GI) system and limited brain access (BBB). Egg white–high probability for GI absorption. Egg yolk–high probability for BBB permeation. Blue dot–substrate is predicted to be actively exported from the central nervous system. […]
(§2) SGCAA medium was used for induction and cells were grown at 30 °C, 250 rpm for 20 h. […] Samples were filtered through 5 mL round-bottom tubes with cell strainer caps (Falcon) and analyzed directly by FACS. […]
(§3) PMT voltages were set based on negative controls (no protein expression). Gates were applied for FSC, SSC, and fluorescence; signals >10³ (bilirubin or rhodamine dyes) were considered positive, background ≤10². […]
(§4) regions were amplified via KOD PCR reaction using primers containing unique barcodes (NGS adaptor ligation oligos, Eurofins Genomics) analyzed by NGS sequencing (Illumina technology, Eurofins Genomics). The NGS results were analyzed using a custom-build pipeline as described previously. […]

[2] = target: T2, BABP (Gallus gallus, UniProt P80226); experiment: as above; assay type: binding; details: SD, n = 3
T2 construct: gene FABP1; recombinant from E. coli, N-terminal His10-TEV (pET51b), 15 kDa
T2 sequence (P80226 2-126): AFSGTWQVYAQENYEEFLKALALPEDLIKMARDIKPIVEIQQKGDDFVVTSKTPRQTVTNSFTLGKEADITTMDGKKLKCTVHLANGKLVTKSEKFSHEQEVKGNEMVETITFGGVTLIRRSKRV
Excerpt: as §1, §2, §3, §4

[3] = target: cpRho-tag; experiment: Fluorescence polarization with 0.5-20 nM dye (0.5 nM TMR in Figure S6 titrations) and serial protein dilutions in 50 mM HEPES, 50 mM NaCl, pH 7.3 with BSA, 25 °C, N at least 3.; assay type: binding; details: SD, n = 3; read-out: K D, other Rho-tag forms and JF549
Method: (§5) electroporation buffer, aliquoted (12 x 50 µL) on ice, and used immediately for electroporation with 1–5 µg DNA precipitated DNA. Cells were transferred to pre-chilled 0.2 cm gap electroporation cuvettes (Bio-Rad), and electroporated using a Gene Pulser Xcell (0.54 kV, 25 µF, infinite resistance, exponential decay). Cells were recovered in 2 mL YPDS at 30 °C, shaking for 1 h and afterwards expanded in 100 mL SDCAA at 30 °C for 2 days.
(§6) YSD protein expression, staining and sorting
as §2, §3
(§7) regions were amplified via KOD PCR reaction using primers containing unique barcodes (NGS adaptor ligation oligos, Eurofins Genomics) analyzed by NGS sequencing (Illumina technology, Eurofins Genomics). The NGS results were analyzed using a custom-build pipeline as described previously. Alternatively, plasmid DNA was transformation into E.cloni 10G and single colonies were analyzed by Sanger sequencing (Eurofins). […]
(§8) Stopped-flow kinetic fluorescence anisotropy […]
(§9) FA: fluorescence anisotropy, B: max. […]

[4] = Spectral properties: absolute quantum yield, extinction coefficient, brightness; assay type: physicochemical
Method: Serially fluorophore dilutions (0 – 3 μM) were prepared in activity buffer in presence or absence […]
Measurements were performed in 200 μL volumes in clear-bottom non-binding […]
recorded on the Spark20M microplate reader (Tecan). Following baseline correction, the absorbance was plotted against the dye concentration and the data were fitted linearly. Path […]
coefficients were calculated via the Lambert-Beer law (Equation 1).
Absolute quantum yields were determined at room temperature using a Hamamatsu Quantaurus-QY spectrometer (C11347 model). Rhodamine dyes (1 μM) were tested with and without excess […]
Samples were prepared in 800 μL glass vials
Quantum yield represent as mean ± standard deviation from three technical replicates. The brightness was thereafter calculated using Equation 5. […]

[5] = target: T3, Rho-tag (Chlorobaculum tepidum, UniProt Q8KFZ1, V17Q/Q25R/S33N/E36V/H40T/K51V/F62Y/M64F/S65D/A66M/G67E/E70D/V87I/G107D/D121K/F125Y/D126E/N138A/S152V); experiment: Fluorescence polarization with 0.5-20 nM dye (0.5 nM TMR in Figure S6 titrations) and serial protein dilutions in 50 mM HEPES, 50 mM NaCl, pH 7.3 with BSA, 25 °C, N at least 3.; assay type: binding; details: SD, n = 3; read-out: K D, other Rho-tag forms and JF549
T3 construct: gene CT0179; His10-TEV, recombinant from E. coli
T3 sequence (Q8KFZ1 entry or part of it with the stated changes): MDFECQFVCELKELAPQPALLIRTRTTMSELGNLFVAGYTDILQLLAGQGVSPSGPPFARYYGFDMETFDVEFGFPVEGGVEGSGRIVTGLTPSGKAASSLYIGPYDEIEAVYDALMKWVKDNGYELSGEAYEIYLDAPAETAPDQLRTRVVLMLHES
Method: as §5, §6, §2, §3, §7, §8, §9

[6] = target: T3, Rho-tag; experiment: Fluorescence polarization at constant 20 nM TMR-linked ligand with serial Rho-tag dilutions (0-200 uM), pH 7.3, 25 °C, three independent measurements.; assay type: binding; details: SD, n = 3; read-out: KD [µM] (Supplementary Table 4)
Method: (§19) Binding affinities KD was derived from fluorescence polarization experiments at constant dye concentration
(§20) (20 nM) and serial protein dilutions (0 – 200 µM). Average data and standard deviation from three
independent measurements (N = 3).
(§21) Biochemical and Spectral Characterization
(§22) Serial protein dilutions (0 – 200 μM) were prepared in activity buffer and transferred to black flat bottom low-volume 384-well plates (Greiner). Rhodamine dyes (0.5 – 20 nM) were added in activity buffer containing 1% (w/v) bovine serum albumin (BSA, Fraction V, Roth) using a 384-channel VIAFLO pipettor (Integra) at a 1:1 mixing ratio.
(§23) JF 646) or fluorescence polarization (FP, all other dyes) measurements were conducted on a Spark20M microplate reader (Tecan) at 25 °C in technical triplicates. Excitation and emission settings are summarized in Method Table 5.
(§24) For data processing, technical triplicates were averaged and normalized between 0 ( i.e. free dye)
(§25) and 1 (fully bound dye). The dissociation constants KD were determined by fitting a single-site
binding model (Equation 2) to the data.
(§26) at least three independent experiments (N ≥ 3), unless otherwise mentioned.
(§27) between dyes or proteins, log 10 fold changes relative to a reference e.g., parental protein were
(§28) Y: fluorescence intensity [a.u.] or fluorescence polarization [mFP], A: min. FI / FP, B: max.
(§29) protein concentration [mol/L], h: Hill coefficient, K D: dissociation constant [mol/L].

[7] = target: T4, Rho-tag (Chlorobaculum tepidum, UniProt Q8KFZ1, A66M/D121K/D126E/E36V/E70D/F125Y/F62Y/G107D/G67E/H40T/K51V/M64F/N138A/Q25R/S152V/S33N/S65D/V17Q/V87I); experiment: as above; assay type: binding; details: SD, n = 3
T4 construct: gene CT0179; His10-TEV, recombinant from E. coli
T4 sequence (Q8KFZ1 entry or part of it with the stated changes): as above
Method: as §19, §20
independent measurements (N = 3).
as §21, §22, §23, §24, §25
binding model (Equation 2) to the data.
as §26, §27, §28, §29

[8] = target: T5, variant 2; experiment: Fluorescence intensity titration of dye (not given; JF646 by comparison with the text) with serial protein dilutions, 50 mM HEPES, 50 mM NaCl, pH 7.3 with BSA, 25 °C, n at least 3.; assay type: binding; details: SD, n = 3; read-out: KD [M] (Supplementary Table 10, replicates)
T5 construct: Rho-tag background, loop2 library hit
Excerpt: (§10) Supplementary Table 10 | Characterization of putative SiR-tag variants. variant sequence KD [M] TM [° C]
(§11) Binding affinity determined via fluorescence intensity. *data from single replicate. If not stated otherwise, average data and standard deviation from n ≥ 3 individual replicates. Thermostability (T M) determined via […]
(§12) Supplementary Table 11 | Plasmids deposited on Addgene
(§13) Addgene ID plasmid insert expression organism
(§14) 249667 pcDNA5/FRT/TO H2B-Rho-tag-T2A-mEGFP mammalian cells
(§15) 249668 pcDNA5/FRT/TO H2B-SiR-tag-T2A-mEGFP mammalian cells
(§16) 249669 pcDNA5/FRT/TO CD86-Rho-tag mammalian cells
(§17) 249670 pcDNA5/FRT/TO CD86-SiR-tag mammalian cells
(§18) 249671 pTol2-HuC Rho-tag-Pro30-mEGFP-NLS3x zebrafish […]
as §2, §3, §4

[9] = target: T6, SiR-tag; experiment: as above; assay type: binding; details: SD, n = 3; read-out: KD [M] (Supplementary Table 10, replicates)
T6 construct: 2 + PROSS8 background combined with P57M/F58Y/R60L and G63N/F64K/D65N/M66H; His10-TEV
Excerpt: as §10, §11, §12, §13, §14, §15, §16, §17, §18, §2, §3, §4

[10] = with 20 µM Rho-tag (TMR, JF549) or SiR-tag (SiR, JF646)

CN(C)c1ccc2c(-c3ccccc3C(=O)[O-])c3ccc(N(C)C)cc3[o+]c2c1 [TMR, tetramethylrhodamine]
Kd [1]: 17000 nM
Kd [2]: 34000 nM
Kd [3]: 6.8 nM
Absolute quantum yield Φ ([4]; HaloTag7-bound): 0.542 ± 0.013
Brightness ε × Φ ([4]; HaloTag7-bound): 55 ± 3 M-1cm-1 × 103
Extinction coefficient ε ([4]; HaloTag7-bound): 101 ± 08 M-1cm-1 × 103
Brightness ε × Φ ([4]; buffer): 39 ± 2 M-1cm-1 × 103
Extinction coefficient ε ([4]; buffer): 089 ± 11 M-1cm-1 × 103
Absolute quantum yield Φ ([4]; buffer (unbound dye)): 0.44 ± 0.01 and 0.439 ± 0.011
Absolute quantum yield Φ [4, 10]: 0.73 ± 0.02 and 0.728 ± 0.019
Brightness ε × Φ [4, 10]: 75 ± 1 M-1cm-1 × 103
Extinction coefficient ε [4, 10]: 103 ± 21 M-1cm-1 × 103

O=C1OC2(c3ccc(N4CCC4)cc3Oc3cc(N4CCC4)ccc32)c2ccccc21 [JF549, Janelia Fluor 549 (TMR derivative)]
Kd [5]: 4 nM

tetramethylrhodamine-6-carboxyl SNAP-tag ligand BG (benzylguanine) [TMR-BG]
Kd [6]: 0.4 µM

C[Si]1(C)c2cc(N3CCC3)ccc2C2(OC(=O)c3ccccc32)c2ccc(N3CCC3)cc21 [JF646]
Absolute quantum yield Φ [4]: 0.554 ± 0.011
Extinction coefficient ε [4]: 162 ± 12
Brightness ε × Φ ([4]; buffer): 051 ± 1 M-1cm-1 × 103
Extinction coefficient ε ([4]; buffer): 106 ± 24 M-1cm-1 × 103
Absolute quantum yield Φ ([4]; buffer (unbound dye)): 0.477 ± 0.024
Absolute quantum yield Φ [4, 10]: 0.660 ± 0.018
Extinction coefficient ε [4, 10]: 152 ± 17 M-1cm-1 × 103

tetramethylrhodamine-6-carboxyl SNAP-tag ligand CP (chloropyrimidine) [TMR-CP]
Kd [6]: 1.9 µM

CN(C)c1ccc2c(-c3cc(C(=O)NCCOCCOCCCCCNS(C)(=O)=O)ccc3C(=O)[O-])c3ccc(=[N+](C)C)cc-3oc2c1 [TMR-S5 (xHTL), tetramethylrhodamine-6-carboxyl exchangeable HaloTag Ligand S5]
Kd [6]: 18.8 µM

O=C1OC2(c3ccc(N4CCC4)cc3Oc3cc(N4CCC4)ccc32)c2ccccc21 [JF549]
Absolute quantum yield Φ [4]: 0.844 ± 0.008
Brightness ε × Φ [4]: 128 ± 3
Extinction coefficient ε [4]: 152 ± 22
Extinction coefficient ε ([4]; buffer): 101 ± 08 M-1cm-1 × 103
Absolute quantum yield Φ ([4]; buffer (unbound dye)): 0.842 ± 0.012
Absolute quantum yield Φ [4, 10]: 0.87 ± 0.02 and 0.871 ± 0.018
Brightness ε × Φ [4, 10]: 105 ± 4 M-1cm-1 × 103
Extinction coefficient ε [4, 10]: 121 ± 22 M-1cm-1 × 103

CN(C)c1ccc2c(-c3cc(C(=O)NCCOCCOCCCCCCCl)ccc3C(=O)[O-])c3ccc(=[N+](C)C)cc-3oc2c1 [TMR-HTL, tetramethylrhodamine-6-carboxyl HaloTag Ligand]
Kd [7]: 9800 nM

C[Si]1(C)c2cc(N3CCC3)ccc2C2(OC(=O)c3ccccc32)c2ccc(N3CCC3)cc21 [JF646, Janelia Fluor 646 (SiR derivative)]
Kd [8]: 9.1e-08 M
Kd [9]: 2e-08 M
